Here are results for eleven compounds from patent US12304890B2, “R-type pyridyloxycarboxylic acid, salt and ester derivative thereof, and preparation method therefor, and herbicidal composition and application thereof” (Qingdao Kingagroot Chemical Compound Co., Ltd., priority 2018, dated 2025).

Holding throughout (format): in vivo
The test system of one assay is Echinochloa crusgalli. Put plainly: Post-emergence test experiment, Echinochloa crusgalli. The conditions noted are these: 1000 g a.i./ha, 3 weeks in greenhouse, fresh weight inhibition. The method in brief:
(§1)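 Pot-grown plants, sown 2 weeks earlier and at 2-3 leaves, received a foliar spray of compound in acetone/tween-80 with methyl oleate adjuvant. Effect was expressed as fresh weight inhibition rate after three further greenhouse weeks.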

For another assay, the system named is Digitaria sanguinalis. Put plainly: Post-emergence test experiment, Digitaria sanguinalis. The settings on record: 1000 g a.i./ha, 3 weeks in greenhouse, fresh weight inhibition. The method in brief: as §1
Assay [1] deals with Monocotyledonous and dicotyledonous weed seeds and main crop seeds. Put plainly: Post-emergence test experiment, other weeds and crops (Table 4, 1000 g a.i./ha). The conditions noted are these: 3 weeks in greenhouse, fresh weight inhibition. The method in brief:
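Weed and crop seeds (wheat, corn, rice, soybean, cotton, oilseed, millet, sorghum) sown in soil pots in a greenhouse and sprayed at 2-3 leaf stage, 2 weeks after sowing. Compound in acetone/tween-80 with methyl oleate concentrate (1.5 L/ha) as synergist. Effect recorded as fresh-weight growth inhibition rate.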

As to `CC(Oc1nc(F)c(Cl)c(N)c1Cl)C(=O)SCc1ccccc1Cl` (stereo not shown) [Compound 2-315], the “Activity level (growth inhibition rate), Echinochloa crusgalli” value in the assay on Echinochloa crusgalli is recorded as 5 (Level 5: the growth inhibition rate is greater than 85%). Besides, in the assay with Digitaria sanguinalis, the “Activity level (growth inhibition rate), Digitaria sanguinalis” value is reported as 5 (Level 5: the growth inhibition rate is greater than 85%). In assay [1], the “Activity level (growth inhibition rate), Abutilon theophrasti Medic.” value is 5 (Level 5: the growth inhibition rate is greater than 85%); the “Activity level (growth inhibition rate), Galium aparine” value was 5 (Level 5: the growth inhibition rate is greater than 85%); the “Activity level (growth inhibition rate), Monochoria Vaginalis” value is 5 (Level 5: the growth inhibition rate is greater than 85%).

As to `CC(Oc1nc(F)c(Cl)c(N)c1Cl)C(=O)OCc1cccc(Cl)c1` (stereo not shown) [Compound 2-316], the “Activity level (growth inhibition rate), Echinochloa crusgalli” value with Echinochloa crusgalli is 5 (Level 5: the growth inhibition rate is greater than 85%). Moreover, the “Activity level (growth inhibition rate), Digitaria sanguinalis” value with Digitaria sanguinalis is recorded as 5 (Level 5: the growth inhibition rate is greater than 85%). Further, in assay [1], the “Activity level (growth inhibition rate), Abutilon theophrasti Medic.” value is 5 (Level 5: the growth inhibition rate is greater than 85%); the “Activity level (growth inhibition rate), Galium aparine” value is 5 (Level 5: the growth inhibition rate is greater than 85%); the “Activity level (growth inhibition rate), Monochoria Vaginalis” value is 5 (Level 5: the growth inhibition rate is greater than 85%).

In the case of `CC(Oc1nc(F)c(Cl)c(N)c1Cl)C(=O)SCc1cccc(Cl)c1` (stereo not shown) [Compound 2-317], in the assay on Echinochloa crusgalli, the “Activity level (growth inhibition rate), Echinochloa crusgalli” value is 5 (Level 5: the growth inhibition rate is greater than 85%). Further, in the assay with Digitaria sanguinalis, the “Activity level (growth inhibition rate), Digitaria sanguinalis” value is on record as 5 (Level 5: the growth inhibition rate is greater than 85%). Besides, in assay [1], the “Activity level (growth inhibition rate), Abutilon theophrasti Medic.” value is 5 (Level 5: the growth inhibition rate is greater than 85%); the “Activity level (growth inhibition rate), Galium aparine” value is 5 (Level 5: the growth inhibition rate is greater than 85%); the “Activity level (growth inhibition rate), Monochoria Vaginalis” value is on record as 5 (Level 5: the growth inhibition rate is greater than 85%).

As for `CC(Oc1nc(F)c(Cl)c(N)c1Cl)C(=O)OCc1ccc(Cl)cc1` (stereo not shown) [Compound 2-318], in the assay on Echinochloa crusgalli, the “Activity level (growth inhibition rate), Echinochloa crusgalli” value is listed as 5 (Level 5: the growth inhibition rate is greater than 85%). In addition, in the assay with Digitaria sanguinalis, the “Activity level (growth inhibition rate), Digitaria sanguinalis” value was 5 (Level 5: the growth inhibition rate is greater than 85%). Moreover, in assay [1], the “Activity level (growth inhibition rate), Abutilon theophrasti Medic.” value was 5 (Level 5: the growth inhibition rate is greater than 85%); the “Activity level (growth inhibition rate), Galium aparine” value is 5 (Level 5: the growth inhibition rate is greater than 85%); the “Activity level (growth inhibition rate), Monochoria Vaginalis” value is 5 (Level 5: the growth inhibition rate is greater than 85%).

Turning to `CC(Oc1nc(F)c(Cl)c(N)c1Cl)C(=O)OCc1ccccc1Br` (stereo not shown) [Compound 2-320], the “Activity level (growth inhibition rate), Echinochloa crusgalli” value in the assay with Echinochloa crusgalli was 5 (Level 5: the growth inhibition rate is greater than 85%). Moreover, in the assay with Digitaria sanguinalis, the “Activity level (growth inhibition rate), Digitaria sanguinalis” value is 5 (Level 5: the growth inhibition rate is greater than 85%). For the same compound, in assay [1], the “Activity level (growth inhibition rate), Abutilon theophrasti Medic.” value is 5 (Level 5: the growth inhibition rate is greater than 85%); the “Activity level (growth inhibition rate), Galium aparine” value is 5 (Level 5: the growth inhibition rate is greater than 85%); the “Activity level (growth inhibition rate), Monochoria Vaginalis” value is recorded as 5 (Level 5: the growth inhibition rate is greater than 85%).

Consider `CC(Oc1nc(F)c(Cl)c(N)c1Cl)C(=O)SCc1ccccc1Br` (stereo not shown) [Compound 2-321], for which the “Activity level (growth inhibition rate), Echinochloa crusgalli” value in the assay with Echinochloa crusgalli is reported as 5 (Level 5: the growth inhibition rate is greater than 85%). For the same compound, the “Activity level (growth inhibition rate), Digitaria sanguinalis” value in the assay with Digitaria sanguinalis was 5 (Level 5: the growth inhibition rate is greater than 85%). In addition, in assay [1], the “Activity level (growth inhibition rate), Abutilon theophrasti Medic.” value is given as 5 (Level 5: the growth inhibition rate is greater than 85%); the “Activity level (growth inhibition rate), Galium aparine” value was 5 (Level 5: the growth inhibition rate is greater than 85%); the “Activity level (growth inhibition rate), Monochoria Vaginalis” value was 5 (Level 5: the growth inhibition rate is greater than 85%).

With `CC(Oc1nc(F)c(Cl)c(N)c1Cl)C(=O)OCc1cccc(Br)c1` (stereo not shown) [Compound 2-322], the “Activity level (growth inhibition rate), Echinochloa crusgalli” value in the assay on Echinochloa crusgalli is 5 (Level 5: the growth inhibition rate is greater than 85%). Further, the “Activity level (growth inhibition rate), Digitaria sanguinalis” value in the assay on Digitaria sanguinalis is listed as 5 (Level 5: the growth inhibition rate is greater than 85%). Besides, in assay [1], the “Activity level (growth inhibition rate), Abutilon theophrasti Medic.” value is 5 (Level 5: the growth inhibition rate is greater than 85%); the “Activity level (growth inhibition rate), Galium aparine” value is 5 (Level 5: the growth inhibition rate is greater than 85%); the “Activity level (growth inhibition rate), Monochoria Vaginalis” value is on record as 5 (Level 5: the growth inhibition rate is greater than 85%).

In the case of `CC(Oc1nc(F)c(Cl)c(N)c1Cl)C(=O)SCc1cccc(Br)c1` (stereo not shown) [Compound 2-323], the “Activity level (growth inhibition rate), Echinochloa crusgalli” value with Echinochloa crusgalli is reported as 5 (Level 5: the growth inhibition rate is greater than 85%). The “Activity level (growth inhibition rate), Digitaria sanguinalis” value in the assay with Digitaria sanguinalis is given as 5 (Level 5: the growth inhibition rate is greater than 85%). In assay [1], the “Activity level (growth inhibition rate), Abutilon theophrasti Medic.” value is 5 (Level 5: the growth inhibition rate is greater than 85%); the “Activity level (growth inhibition rate), Galium aparine” value is listed as 5 (Level 5: the growth inhibition rate is greater than 85%); the “Activity level (growth inhibition rate), Monochoria Vaginalis” value was 5 (Level 5: the growth inhibition rate is greater than 85%).

As to `CC(Oc1nc(F)c(Cl)c(N)c1Cl)C(=O)OCc1ccc(Br)cc1` (stereo not shown) [Compound 2-324], the “Activity level (growth inhibition rate), Echinochloa crusgalli” value in the assay on Echinochloa crusgalli is reported as 5 (Level 5: the growth inhibition rate is greater than 85%). Further, the “Activity level (growth inhibition rate), Digitaria sanguinalis” value in the assay with Digitaria sanguinalis is 5 (Level 5: the growth inhibition rate is greater than 85%). In assay [1], the “Activity level (growth inhibition rate), Abutilon theophrasti Medic.” value is reported as 5 (Level 5: the growth inhibition rate is greater than 85%); the “Activity level (growth inhibition rate), Galium aparine” value is 5 (Level 5: the growth inhibition rate is greater than 85%); the “Activity level (growth inhibition rate), Monochoria Vaginalis” value is 5 (Level 5: the growth inhibition rate is greater than 85%).

Take `CC(Oc1nc(F)c(Cl)c(N)c1Cl)C(=O)SCc1ccc(Br)cc1` (stereo not shown) [Compound 2-325]: the “Activity level (growth inhibition rate), Echinochloa crusgalli” value in the assay on Echinochloa crusgalli is listed as 5 (Level 5: the growth inhibition rate is greater than 85%). Besides, the “Activity level (growth inhibition rate), Digitaria sanguinalis” value in the assay on Digitaria sanguinalis is listed as 5 (Level 5: the growth inhibition rate is greater than 85%). Moreover, in assay [1], the “Activity level (growth inhibition rate), Abutilon theophrasti Medic.” value is 5 (Level 5: the growth inhibition rate is greater than 85%); the “Activity level (growth inhibition rate), Galium aparine” value is reported as 5 (Level 5: the growth inhibition rate is greater than 85%); the “Activity level (growth inhibition rate), Monochoria Vaginalis” value is reported as 5 (Level 5: the growth inhibition rate is greater than 85%).

On to `CC(Oc1nc(F)c(Cl)c(N)c1Cl)C(=O)OCc1ccccc1C(F)(F)F` (stereo not shown) [Compound 2-327], for which the “Activity level (growth inhibition rate), Echinochloa crusgalli” value in the assay on Echinochloa crusgalli is listed as 5 (Level 5: the growth inhibition rate is greater than 85%). For the same compound, the “Activity level (growth inhibition rate), Digitaria sanguinalis” value in the assay with Digitaria sanguinalis was 5 (Level 5: the growth inhibition rate is greater than 85%). In assay [1], the “Activity level (growth inhibition rate), Abutilon theophrasti Medic.” value was 5 (Level 5: the growth inhibition rate is greater than 85%); the “Activity level (growth inhibition rate), Galium aparine” value is 5 (Level 5: the growth inhibition rate is greater than 85%); the “Activity level (growth inhibition rate), Monochoria Vaginalis” value is 5 (Level 5: the growth inhibition rate is greater than 85%).
